Measured values: patent publication US9738634B2, “Heterocyclic amide compound and herbicide” (SYNGENTA PARTICIPATIONS AG, priority 2013, dated 2017)

How the values were obtained:
Assay type in all cases: in vivo
corn [1] = assay: Test Example 4: foliar treatment, effect on crop; c: corn; details: treatment dosage 315 g/ha
In short: (§1)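 Seeds are spot-sown into sterilized diluvial soil and covered with about 1.5 cm of soil. After 14 days' greenhouse growth at 25 to 30° C, plants are sprayed on stems and leaves with diluted emulsion at the stated g/ha rate, then scored at 3 weeks.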

Italian ryegrass [2] = assay: Test Example 4: weedkilling efficacy by foliar treatment; I: Italian ryegrass; details: treatment dosage 315 g/ha
In short: as §1

directly sown rice [3] = assay: Test Example 3: soil treatment, effect on crop; b: directly sown rice; details: treatment dosage 315 g/ha
In short: (§2)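 Crop and weed responses were judged three weeks after a uniform surface spray of the water-diluted emulsion at the given g/ha rate. Seeds sat beneath about 1.5 cm of sterilized diluvial soil, and boxes stood in a greenhouse at 25 to 30° C.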

crabgrass [4] = assay: Test Example 3: weedkilling efficacy through soil treatment; D: crabgrass; details: treatment dosage 315 g/ha
In short: as §2

chickweed [5] = assay: Test Example 3: weedkilling efficacy through soil treatment; N: chickweed; details: treatment dosage 315 g/ha
In short: as §2

soybean [6] = assay: Test Example 4: foliar treatment, effect on crop; d: soybean; details: treatment dosage 315 g/ha
In short: as §1

directly sown rice [7] = assay: Test Example 4: foliar treatment, effect on crop; b: directly sown rice; details: treatment dosage 315 g/ha
In short: as §1

barnyard grass [8] = assay: Test Example 3: weedkilling efficacy through soil treatment; F: barnyard grass; details: treatment dosage 315 g/ha
In short: as §2

green foxtail [9] = assay: Test Example 4: weedkilling efficacy by foliar treatment; E: green foxtail; details: treatment dosage 315 g/ha
In short: as §1

catchweed [10] = assay: Test Example 3: weedkilling efficacy through soil treatment; O: catchweed; details: treatment dosage 315 g/ha
In short: as §2

Indian mallow [11] = assay: Test Example 3: weedkilling efficacy through soil treatment; K: Indian mallow; details: treatment dosage 315 g/ha
In short: as §2

birds-eye speedwell [12] = assay: Test Example 4: weedkilling efficacy by foliar treatment; p: birds-eye speedwell; details: treatment dosage 315 g/ha
In short: as §1

beet [13] = assay: Test Example 4: foliar treatment, effect on crop; f: beet; details: treatment dosage 315 g/ha
In short: as §1

bulrush [14] = assay: Test Example 1: weedkilling efficacy, preemergent weed treatment in the submerged state; B: bulrush; details: treatment dosage 252 g/ha
In short: (§3)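 Alluvial soil in Wagner pots flooded to 4 cm; barnyard grass, bulrush and oval-leafed pondweed seeds sown, then 2.5-leaf rice seedlings transplanted. Same day, emulsified compound diluted in water to set g/ha dosages and applied to water surface; greenhouse 25–30 °C, effect scored by criteria after 3 weeks.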

common wind-grass [15] = assay: Test Example 4: weedkilling efficacy by foliar treatment; J: common wind-grass; details: treatment dosage 315 g/ha
In short: as §1

Italian ryegrass [16] = assay: Test Example 3: weedkilling efficacy through soil treatment; I: Italian ryegrass; details: treatment dosage 315 g/ha
In short: as §2

corn [17] = assay: Test Example 3: soil treatment, effect on crop; c: corn; details: treatment dosage 315 g/ha
In short: as §2

oval-leafed pondweed [18] = assay: Test Example 1: weedkilling efficacy, preemergent weed treatment in the submerged state; C: oval-leafed pondweed; details: treatment dosage 252 g/ha
In short: as §3

rapeseed [19] = assay: Test Example 3: soil treatment, effect on crop; g: rapeseed; details: treatment dosage 315 g/ha
In short: as §2

catchweed [20] = assay: Test Example 4: weedkilling efficacy by foliar treatment; O: catchweed; details: treatment dosage 315 g/ha
In short: as §1

Indian mallow [21] = assay: Test Example 4: weedkilling efficacy by foliar treatment; K: Indian mallow; details: treatment dosage 315 g/ha
In short: as §1

wild oat [22] = assay: Test Example 3: weedkilling efficacy through soil treatment; G: wild oat; details: treatment dosage 315 g/ha
In short: as §2

black-grass [23] = assay: Test Example 4: weedkilling efficacy by foliar treatment; H: black-grass; details: treatment dosage 315 g/ha
In short: as §1

transplanted rice = assay: Test Example 1: preemergent weed treatment in the submerged state, effect on crop; a: transplanted rice; details: treatment dosage 252 g/ha
In short: as §3

barnyard grass [24] = assay: Test Example 4: weedkilling efficacy by foliar treatment; F: barnyard grass; details: treatment dosage 315 g/ha
In short: as §1

wild oat [25] = assay: Test Example 4: weedkilling efficacy by foliar treatment; G: wild oat; details: treatment dosage 315 g/ha
In short: as §1

common wind-grass [26] = assay: Test Example 3: weedkilling efficacy through soil treatment; J: common wind-grass; details: treatment dosage 315 g/ha
In short: as §2

barnyard grass [27] = assay: Test Example 2: weedkilling efficacy, growth period weed treatment in the submerged state; A: barnyard grass; details: treatment dosage 252 g/ha
In short: (§4)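 First, alluvial soil in pots is flooded to 4 cm and mixed seed is sown. Next, plants grow in a greenhouse at 25 to 30° C until the 1-2 leaf stage. Then diluted emulsion is applied onto the water surface at the given g/ha rate, and injury is assessed after 3 weeks.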

rapeseed [28] = assay: Test Example 4: foliar treatment, effect on crop; g: rapeseed; details: treatment dosage 315 g/ha
In short: as §1

redroot pigweed [29] = assay: Test Example 3: weedkilling efficacy through soil treatment; L: redroot pigweed; details: treatment dosage 315 g/ha
In short: as §2

wheat [30] = assay: Test Example 4: foliar treatment, effect on crop; e: wheat; details: treatment dosage 315 g/ha
In short: as §1

chickweed [31] = assay: Test Example 4: weedkilling efficacy by foliar treatment; N: chickweed; details: treatment dosage 315 g/ha
In short: as §1

bulrush [32] = assay: Test Example 2: weedkilling efficacy, growth period weed treatment in the submerged state; B: bulrush; details: treatment dosage 252 g/ha
In short: as §4

oval-leafed pondweed [33] = assay: Test Example 2: weedkilling efficacy, growth period weed treatment in the submerged state; C: oval-leafed pondweed; details: treatment dosage 252 g/ha
In short: as §4

green foxtail [34] = assay: Test Example 3: weedkilling efficacy through soil treatment; E: green foxtail; details: treatment dosage 315 g/ha
In short: as §2

soybean [35] = assay: Test Example 3: soil treatment, effect on crop; d: soybean; details: treatment dosage 315 g/ha
In short: as §2

black-grass [36] = assay: Test Example 3: weedkilling efficacy through soil treatment; H: black-grass; details: treatment dosage 315 g/ha
In short: as §2

birds-eye speedwell [37] = assay: Test Example 3: weedkilling efficacy through soil treatment; p: birds-eye speedwell; details: treatment dosage 315 g/ha
In short: as §2

wheat [38] = assay: Test Example 3: soil treatment, effect on crop; e: wheat; details: treatment dosage 315 g/ha
In short: as §2

barnyard grass [39] = assay: Test Example 1: weedkilling efficacy, preemergent weed treatment in the submerged state; A: barnyard grass; details: treatment dosage 252 g/ha
In short: as §3

redroot pigweed [40] = assay: Test Example 4: weedkilling efficacy by foliar treatment; L: redroot pigweed; details: treatment dosage 315 g/ha
In short: as §1

beet [41] = assay: Test Example 3: soil treatment, effect on crop; f: beet; details: treatment dosage 315 g/ha
In short: as §2

crabgrass [42] = assay: Test Example 4: weedkilling efficacy by foliar treatment; D: crabgrass; details: treatment dosage 315 g/ha
In short: as §1

CC1=C(c2ccccc2)C(=O)N(C(C)(C)C(=O)Nc2cc(C)cnc2Cl)CO1 [B-3-04]
c (corn) effect on crop grade (corn [1]): 0 (weed kill ratio 5% or less (practically no effect))
I (Italian ryegrass) weedkilling efficacy grade (Italian ryegrass [2]): 3 (weed kill ratio 40% or more, less than 70%)
b (directly sown rice) effect on crop grade (directly sown rice [3]): 1 (weed kill ratio 5% or more, less than 20%)
D (crabgrass) weedkilling efficacy grade (crabgrass [4]): 5 (weed kill ratio 90% or more, (practically complete withering))
N (chickweed) weedkilling efficacy grade (chickweed [5]): 3 (weed kill ratio 40% or more, less than 70%)
d (soybean) effect on crop grade (soybean [6]): 0 (weed kill ratio 5% or less (practically no effect))
b (directly sown rice) effect on crop grade (directly sown rice [7]): 0 (weed kill ratio 5% or less (practically no effect))
F (barnyard grass) weedkilling efficacy grade (barnyard grass [8]): 5 (weed kill ratio 90% or more, (practically complete withering))
E (green foxtail) weedkilling efficacy grade (green foxtail [9]): 4 (weed kill ratio 70% or more, less than 90%)
O (catchweed) weedkilling efficacy grade (catchweed [10]): 2 (weed kill ratio 20% or more, less than 40%)
K (Indian mallow) weedkilling efficacy grade (Indian mallow [11]): 0 (weed kill ratio 5% or less (practically no effect))
P (birds-eye speedwell) weedkilling efficacy grade (birds-eye speedwell [12]): 3 (weed kill ratio 40% or more, less than 70%)
f (beet) effect on crop grade (beet [13]): 2 (weed kill ratio 20% or more, less than 40%)
B (bulrush) weedkilling efficacy grade (bulrush [14]): 5 (weed kill ratio 90% or more, (practically complete withering))
J (common wind-grass) weedkilling efficacy grade (common wind-grass [15]): 4 (weed kill ratio 70% or more, less than 90%)
I (Italian ryegrass) weedkilling efficacy grade (Italian ryegrass [16]): 5 (weed kill ratio 90% or more, (practically complete withering))
c (corn) effect on crop grade (corn [17]): 0 (weed kill ratio 5% or less (practically no effect))
C (oval-leafed pondweed) weedkilling efficacy grade (oval-leafed pondweed [18]): 4 (weed kill ratio 70% or more, less than 90%)
g (rapeseed) effect on crop grade (rapeseed [19]): 0 (weed kill ratio 5% or less (practically no effect))
O (catchweed) weedkilling efficacy grade (catchweed [20]): 2 (weed kill ratio 20% or more, less than 40%)
K (Indian mallow) weedkilling efficacy grade (Indian mallow [21]): 2 (weed kill ratio 20% or more, less than 40%)
G (wild oat) weedkilling efficacy grade (wild oat [22]): 3 (weed kill ratio 40% or more, less than 70%)
H (black-grass) weedkilling efficacy grade (black-grass [23]): 3 (weed kill ratio 40% or more, less than 70%)
a (transplanted rice) effect on crop grade (transplanted rice): 0 (weed kill ratio 5% or less (practically no effect))
F (barnyard grass) weedkilling efficacy grade (barnyard grass [24]): 3 (weed kill ratio 40% or more, less than 70%)
G (wild oat) weedkilling efficacy grade (wild oat [25]): 3 (weed kill ratio 40% or more, less than 70%)
J (common wind-grass) weedkilling efficacy grade (common wind-grass [26]): 5 (weed kill ratio 90% or more, (practically complete withering))
A (barnyard grass) weedkilling efficacy grade (barnyard grass [27]): 4 (weed kill ratio 70% or more, less than 90%)
g (rapeseed) effect on crop grade (rapeseed [28]): 1 (weed kill ratio 5% or more, less than 20%)
L (redroot pigweed) weedkilling efficacy grade (redroot pigweed [29]): 0 (weed kill ratio 5% or less (practically no effect))
e (wheat) effect on crop grade (wheat [30]): 0 (weed kill ratio 5% or less (practically no effect))
N (chickweed) weedkilling efficacy grade (chickweed [31]): 3 (weed kill ratio 40% or more, less than 70%)
B (bulrush) weedkilling efficacy grade (bulrush [32]): 4 (weed kill ratio 70% or more, less than 90%)
C (oval-leafed pondweed) weedkilling efficacy grade (oval-leafed pondweed [33]): 3 (weed kill ratio 40% or more, less than 70%)
E (green foxtail) weedkilling efficacy grade (green foxtail [34]): 5 (weed kill ratio 90% or more, (practically complete withering))
d (soybean) effect on crop grade (soybean [35]): 0 (weed kill ratio 5% or less (practically no effect))
H (black-grass) weedkilling efficacy grade (black-grass [36]): 4 (weed kill ratio 70% or more, less than 90%)
P (birds-eye speedwell) weedkilling efficacy grade (birds-eye speedwell [37]): 4 (weed kill ratio 70% or more, less than 90%)
e (wheat) effect on crop grade (wheat [38]): 0 (weed kill ratio 5% or less (practically no effect))
A (barnyard grass) weedkilling efficacy grade (barnyard grass [39]): 5 (weed kill ratio 90% or more, (practically complete withering))
L (redroot pigweed) weedkilling efficacy grade (redroot pigweed [40]): 0 (weed kill ratio 5% or less (practically no effect))
f (beet) effect on crop grade (beet [41]): 1 (weed kill ratio 5% or more, less than 20%)
D (crabgrass) weedkilling efficacy grade (crabgrass [42]): 3 (weed kill ratio 40% or more, less than 70%)
